Earlier results as cited in US20190321375A1, “METHOD OF ADMINISTERING A NE[…] EFFECT ELECTROENCEPHALOGRAPHIC (EEG) BURST SUPPRESSION” (MARINUS PHARMACEUTICALS, INC., priority 2016, published 2019).
Like-named read-outs stand apart in the source and are kept apart here.

What was measured:
[1] = in vivo
patients = conditions: induction bolus

For `CC(=O)[C@H]1CC[C@H]2[C@@H]3CC[C@H]4C[C@H](O)CC[C@]4(C)[C@H]3CC[C@]12C` [Allopregnanolone, 3α,5α-tetrahydroprogesterone], the half-life (human plasma) is listed as 45 min and the oral availability [1] is listed as “poor oral availability”.
In the case of `CC(=O)[C@H]1CC[C@H]2[C@@H]3CC[C@H]4C[C@](C)(O)CC[C@]4(C)[C@H]3CC[C@]12C` [Ganaxolone, 3α-hydroxy, 3β-methyl-5α-pregnan-20-one], the half-life (human plasma following oral administration) is given as “approximately 20 hours”, the Tmax (therapeutic blood levels are reached quickly) is given as “short” and the oral availability [1] is given as “poor oral availability”.
In the case of `CC(C)c1cccc(C(C)C)c1O` [propofol], the “entry into burst suppression” value (patients) is given as “can enter burst suppression directly from the awake state”.
